The results in this text go back to US10933141B2, “Formulations with reduced degradation of polysorbate” (Genentech, Inc., priority 2015, dated 2021).

For series [1], the target named is T1, porcine pancreatic lipase (PPL) (Sus scrofa, UniProt P00591).
T1 construct: purchased Sigma Aldrich Inc. (St. Louis, Mo.)
T1 sequence (P00591 1-450): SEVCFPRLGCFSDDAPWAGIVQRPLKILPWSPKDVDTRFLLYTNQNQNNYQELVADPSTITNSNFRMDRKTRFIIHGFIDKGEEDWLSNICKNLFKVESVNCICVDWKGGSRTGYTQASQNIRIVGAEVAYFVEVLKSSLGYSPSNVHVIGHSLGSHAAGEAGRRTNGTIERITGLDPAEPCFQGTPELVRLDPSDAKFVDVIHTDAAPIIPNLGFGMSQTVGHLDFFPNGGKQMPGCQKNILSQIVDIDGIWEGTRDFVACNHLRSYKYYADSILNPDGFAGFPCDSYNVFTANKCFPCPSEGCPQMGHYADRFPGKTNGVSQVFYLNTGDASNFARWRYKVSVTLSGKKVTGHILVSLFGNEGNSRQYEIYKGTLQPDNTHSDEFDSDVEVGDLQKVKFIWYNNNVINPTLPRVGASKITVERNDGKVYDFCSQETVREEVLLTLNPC
Nature of the series: Subvisible particle formation after PPL digestion of PS20 (HIAC). It is filed as physicochemical. The settings on record: 0.02% PS20; for effect on SVP formation (in words): 15 μg/mL PPL 4.5 hours, then 5° C. overnight, excipient 15% w/v (methionine 10 mg/mL). The procedure: Subvisible particles were measured using a HIAC 9703 particle counter equipped with an HRDL-150 detector and a 1 mL syringe. Performance of the instrument was verified with NIST-traceable 2 μm Polystyrene bead standards at 3000 counts/mL before each measurement session. The HIAC instrument was configured to a 10 mL/min flow rate, 0.1 mL tare volume, and 0.4 mL sample volume. The samples were analyzed using 4 runs of 0.4 mL sips, with the first run of each sample was discarded to prevent measurement error due to sample carryover. Results were reported as the average values for 1.4, 2, 5, 10, 15, and 25, 50 μm analysis filter sizes.
Several excipients were tested for their ability to protect PS20 against enzymatic hydrolysis including HP-α-CD, HP-β-CD, HP-γ-CD, SBE-β-CD, PVP, PEG 1500, sucrose, and methionine. Solutions of each excipient in pH 5.5 buffer were prepared containing a final concentration of 0.02% PS20 after enzyme addition. The concentration of HP-α-CD, HP-β-CD, HP-γ-CD, and SBE-β-CD in the excipient solutions was 106 mM. […] The remaining excipients (PVP, PEG 1500, sucrose) were added to 15% w/v to match the % w/v of HP-β-CD. Samples were digested with 15 μg/mL PPL enzyme for 4.5 hours at room temperature, followed by 30 minutes of heat inactivation at 85° C. Each sample was analyzed for PS20 concentration using high performance liquid chromatography with an inline evaporative light scattering detector. Samples were then placed at 5° C. overnight to allow for the formation of particles and were analyzed for visible and subvisible particles as described previously.
The effect of the HP-β-CD concentration at different PS20 concentrations on the enzymatic degradation of PS20 was assessed to identify optimal concentrations for inhibition of enzymatic PS20 degradation. To evaluate the dependence of PS20 degradation on HP-β-CD concentration, the PS20 content was determined using RP-ELSD for triplicate samples containing different HP-β-CD concentrations at various PS20 concentrations. Samples containing 0.005% (FIG. 14A), 0.02% (FIG. 14B), 0.1% (FIG. 14C), and 0.4% PS20 (FIG. 14D) were digested using 15 μg/mL of PPL enzyme for 4.5 hours at room temperature in protein-free samples containing no excipient (control), 0, 0.5, 5, and 15% (w/v) HP-β-CD. PPL was added to each of the treatment solutions at a ratio of 75 […], with an equivalent volume of buffer added to the control solutions to determine the effect of HP-β-CD to polysorbate ratio on enzymatic degradation. Digestion was stopped by heat inactivation in an 85° C. water bath for 30 minutes. Each sample was analyzed for PS20 concentration using high performance liquid chromatography with an inline evaporative light scattering detector as described above. Samples were then placed at 5° C. overnight to allow for the formation of particles and placed on ice during analysis for visible and subvisible particles as described above.

For series [2], the system named is Rabbit Liver Esterase (RLE). Briefly: Enzymatic degradation of PS20 by RLE, PS20 by RP-ELSD. In kind it is biochemical. The settings on record: 15% w/v HP-β-CD; 0.02% PS20, pH 5.5; 15 μg/mL RLE, 5 hours, room temperature. The method, then: Polysorbate concentration was determined using reverse phase ultra-performance liquid chromatography using evaporative light scattering detection (RP-ELSD). Samples were analyzed using an Agilent 1100 series high performance liquid chromatography system (HPLC) fitted with a Waters Oasis MAX cartridge column (20×2.1 mm, 30 μm particle size). The HPLC system was set up with a switching valve directing column flow-through to either waste or a Varian 380-LC evaporative light scattering detector set to 100° C. The mobile phases consisted of 2% formic acid in water (Pump A) and 2% formic acid in isopropanol (Pump B). […] In order to quantitate the PS20 concentration, a standard curve was generated by injecting 20 μL of solutions containing between 0% w/v and 0.4% w/v PS20. For excipients which affected the migration time of PS20 through the column, PS20 standard curve solutions containing the relevant excipient were included in the analysis to facilitate accurate quantitation.
The effect of 15% HP-β-CD on the enzymatic degradation of PS20 was measured. […]
PPL digestion was stopped by heat inactivation in an 85° C. water bath for 30 minutes. LPL and RLE digestion could not be stopped by heat inactivation, so the samples were analyzed immediately for PS20 content. […]

Where [3] appears, read: PPL 4.5 hours, particles greater than 2, 5, or 10μ.

As for “2-hydroxypropyl-α-cyclodextrin [HP-α-CD]”, in series [1], the “effect on SVP formation (in words)” value was “significant inhibitory effects”.

Turning to “2-hydroxypropyl-β-cyclodextrin [HP-β-CD]”, in series [2], the “Polysorbate 20 (Relative %)” value amounted to 62.7%. In series [1], the “effect on SVP formation (in words)” value was “significant inhibitory effects”. Moreover, in series [1] (setting [3]), the “HP-β-CD concentration required to completely inhibit sub-visible particle formation” value amounted to 15% and the “HP-β-CD concentration required to partially inhibit sub-visible particle formation” value amounted to 0.5%.
